# Measurements: patent US11331327B2, “Antibacterial use of halogenated salicylanilides” (UNION therapeutics A/S, priority 2014, dated 2022)
# Where two headings read alike, the source gives them in different places.
# Tested on: S. aureus clinical isolates and S. aureus ATCC 29213
# Assay: MIC assay according to CLSI criteria, Example 2, S. aureus strains
# Assay type: cell-based, Staphylococcus aureus
# Details: Staphylococcus aureus, read-out: MIC
# Method: Strains were conserved in Luria Bertani (LB) Broth (S. aureus) or Brain Heart Infusion (BHI) (S. pyogenes) supplemented with glycerol 15% (v/v) at −80° C., and reactivated by isolation on LB (S. aureus) or BHI (S. pyogenes) agar plates. Strains were cultivated in Mueller Hinton (MH) Broth-cation adjusted (S. aureus) or BHI (S. pyogenes). All strains were cultivated aerobically (microaerobically for S. pyogenes strains) at 37° C.
# Bacterial cultures were stopped in their exponential growth phase and plates were inoculated with the approximate concentration of 5×10^5 cells per well. Plates were incubated at 37° C. for 18 hours (S. aureus) or 24 hours (S. pyogenes).
structure (smiles),measurement,setting,value
C/C(=C\C(=O)OCCCCCCCCC(=O)O)C[C@@H]1OC[C@H](C[C@@H]2O[C@H]2[C@@H](C)[C@H](C)O)[C@@H](O)[C@H]1O [Mupirocin],MIC,"ATCC 29213 / MRSA, strain MRSA 15",0.25 µg/mL
same,MIC,"ATCC 29213 / MRSA, strain MRSA 16",> 16 µg/mL
same,MIC,"ATCC 29213 / MRSA, strain MRSA 17",> 16 µg/mL
same,MIC,"ATCC 29213 / MRSA, strain MRSA 18",0.125 µg/mL
same,MIC,"ATCC 29213 / MRSA, strain MRSA 19",0.25 µg/mL
same,MIC,"ATCC 29213 / MRSA, strain MRSA 20",0.25 µg/mL
same,MIC,"ATCC 29213 / MRSA, strain MRSA 21",0.125 µg/mL
same,MIC,"ATCC 29213 / MRSA, strain MRSA 22",0.25 µg/mL
same,MIC,"ATCC 29213 / MRSA, strain MRSA 23",0.25 µg/mL
same,MIC,"ATCC 29213 / MRSA, strain MRSA 24",0.25 µg/mL
same,MIC,"ATCC 29213 / MRSA, strain MRSA 25",0.25 µg/mL
same,MIC,"ATCC 29213 / MRSA, strain MRSA 26",0.5 µg/mL
same,MIC,"ATCC 29213 / MRSA, strain MRSA 27",0.25 µg/mL
same,MIC,"ATCC 29213 / MRSA, strain MRSA 27b",0.25 µg/mL
same,MIC,"ATCC 29213 / MRSA, strain MRSA 28",0.5 µg/mL
same,MIC,"ATCC 29213 / MRSA, strain MRSA 29",0.25 µg/mL
same,MIC,"ATCC 29213 / MRSA, strain MRSA 30",0.125 µg/mL
same,MIC,"ATCC 29213 / MRSA, strain MRSA 31",0.25 µg/mL
same,MIC,"ATCC 29213 / MRSA, strain MRSA 32",0.25 µg/mL
same,MIC,"ATCC 29213 / MRSA, strain MRSA 33",0.25 µg/mL
same,MIC,"ATCC 29213 / MRSA, strain MRSA 34",0.25 µg/mL
same,MIC,"ATCC 29213 / MRSA, strain MRSA 35",0.5 µg/mL
same,MIC,"ATCC 29213 / MRSA, strain MRSA 36",0.25 µg/mL
same,MIC,"ATCC 29213 / MRSA, strain MRSA 37",0.25 µg/mL
same,MIC,"ATCC 29213 / MRSA, strain MRSA 38",0.125 µg/mL
same,MIC,"ATCC 29213 / MRSA, strain MRSA 39",0.25 µg/mL
same,MIC,"ATCC 29213 / MRSA, strain MRSA 40",0.25 µg/mL
same,MIC,"ATCC 29213 / MRSA, strain MRSA 41",0.125 µg/mL
same,MIC,"ATCC 29213 / MRSA, strain MRSA 42",0.25 µg/mL
same,MIC,"ATCC 29213 / MRSA, strain MRSA 43",0.25 µg/mL
same,MIC,"ATCC 29213 / MRSA, strain MRSA 44",0.25 µg/mL
same,MIC,"ATCC 29213 / MRSA, strain MRSA 45",0.13 µg/mL
same,MIC,"ATCC 29213 / MRSA, strain MRSA 46",0.13 µg/mL
same,MIC,"ATCC 29213 / MRSA, strain MRSA 47",0.25 µg/mL
same,MIC,"ATCC 29213 / MRSA, strain MRSA 48",0.13 µg/mL
same,MIC,"ATCC 29213 / MRSA, strain MRSA 49",0.25 µg/mL
same,MIC,"ATCC 29213 / MRSA, strain MRSA 50",0.25 µg/mL
same,MIC,"ATCC 29213 / MRSA, strain MRSA 51",0.25 µg/mL
same,MIC,"ATCC 29213 / MRSA, strain MRSA 52",0.25 µg/mL
same,MIC,"ATCC 29213 / MRSA, strain MRSA 53",0.25 µg/mL
same,MIC,"ATCC 29213 / MRSA, strain MRSA 54",0.25 µg/mL
same,MIC,"ATCC 29213 / MRSA, strain MRSA 55",0.25 µg/mL
same,MIC,"ATCC 29213 / MRSA, strain MRSA 56",0.25 µg/mL
same,MIC,"ATCC 29213 / MRSA, strain MRSA 57",0.125 µg/mL
same,MIC,"ATCC 29213 / MRSA, strain MRSA 58",0.125 µg/mL
same,MIC,"ATCC 29213 / MRSA, strain MRSA 59",0.125 µg/mL
same,MIC,"ATCC 29213 / MRSA, strain MRSA 60",0.25 µg/mL
same,MIC,"ATCC 29213 / MRSA, strain MRSA 61",0.25 µg/mL
same,MIC,"ATCC 29213 / MRSA, strain MRSA 62",0.25 µg/mL
same,MIC,"ATCC 29213 / MRSA, strain MRSA 63",0.125 µg/mL
same,MIC,"ATCC 29213 / MRSA, strain MRSA 64",0.25 µg/mL
same,MIC,"ATCC 29213 / MRSA, strain MRSA 65",0.25 µg/mL
same,MIC,"ATCC 29213 / MRSA, strain MRSA 66",0.25 µg/mL
same,MIC,"ATCC 29213 / MRSA, strain MRSA 67",0.125 µg/mL
same,MIC,"ATCC 29213 / MRSA, strain MRSA 68",0.25 µg/mL
same,MIC,"ATCC 29213 / MRSA, strain MRSA 69",0.125 µg/mL
same,MIC,"ATCC 29213 / MRSA, strain MRSA 70",0.25 µg/mL
same,MIC,"ATCC 29213 / MRSA, strain MRSA 71",0.125 µg/mL
same,MIC,"ATCC 29213 / MRSA, strain MRSA 72",0.25 µg/mL
same,MIC,"ATCC 29213 / MRSA, strain MRSA 73",0.25 µg/mL
same,MIC,"ATCC 29213 / MRSA, strain MRSA 74",0.25 µg/mL
same,MIC,"ATCC 29213 / MRSA, strain MRSA 75",0.5 µg/mL
same,MIC,"ATCC 29213 / MRSA, strain MRSA 76",0.25 µg/mL
same,MIC,"ATCC 29213 / MRSA, strain MRSA 77",0.25 µg/mL
same,MIC,"ATCC 29213 / MRSA, strain MRSA 78",0.25 µg/mL
same,MIC,"ATCC 29213 / MRSA, strain MRSA 79",0.25 µg/mL
same,MIC,"ATCC 29213 / MRSA, strain MRSA 80",0.25 µg/mL
same,MIC,"ATCC 29213 / MRSA, strain MRSA 81",0.25 µg/mL
same,MIC,"ATCC 29213 / MRSA, strain MRSA 82",0.25 µg/mL
same,MIC,"ATCC 29213 / MRSA, strain MRSA 83",0.25 µg/mL
same,MIC,"ATCC 29213 / MRSA, strain MRSA 84",0.25 µg/mL
same,MIC,"ATCC 29213 / MRSA, strain MRSA 85",0.25 µg/mL
same,MIC,"ATCC 29213 / MRSA, strain MRSA 86",0.25 µg/mL
same,MIC,"ATCC 29213 / MRSA, strain MRSA 87",0.25 µg/mL
same,MIC,"ATCC 29213 / MRSA, strain MRSA 88",0.25 µg/mL
same,MIC,"ATCC 29213 / MRSA, strain MRSA 89",0.25 µg/mL
same,MIC,"ATCC 29213 / MRSA, strain MRSA 90",0.25 µg/mL
same,MIC,"ATCC 29213 / MRSA, strain MRSA 91",0.25 µg/mL
same,MIC,"ATCC 29213 / MRSA, strain MRSA 92",0.25 µg/mL
same,MIC,"ATCC 29213 / MRSA, strain MRSA 93",0.25 µg/mL
same,MIC,"ATCC 29213 / MRSA, strain MRSA 94",0.25 µg/mL
same,MIC,"ATCC 29213 / MRSA, strain MRSA 95",0.25 µg/mL
same,MIC,"ATCC 29213 / MRSA, strain MRSA 96",0.125 µg/mL
same,MIC,"ATCC 29213 / MRSA, strain MRSA 97",0.25 µg/mL
same,MIC,"ATCC 29213 / MRSA, strain MRSA 98",0.5 µg/mL
same,MIC,"ATCC 29213 / MRSA, strain MRSA 99",0.5 µg/mL
same,MIC,"ATCC 29213 / MRSA, strain MRSA 100",0.5 µg/mL
same,MIC,"ATCC 29213 / MRSA, strain MRSA 101",0.25 µg/mL
same,MIC,"ATCC 29213 / MRSA, strain MRSA 102",0.25 µg/mL
same,MIC,"ATCC 29213 / MRSA, strain MRSA 103",0.25 µg/mL
same,MIC,"ATCC 29213 / MRSA, strain MRSA 104",0.25 µg/mL
same,MIC,"ATCC 29213 / MRSA, strain MRSA 105",0.25 µg/mL
same,MIC,"ATCC 29213 / MRSA, strain MRSA 106",0.25 µg/mL
same,MIC,"ATCC 29213 / MRSA, strain MRSA 107",0.25 µg/mL
same,MIC,"ATCC 29213 / MRSA, strain MRSA 108",0.25 µg/mL
same,MIC,"ATCC 29213 / MRSA, strain MRSA 109",0.25 µg/mL
same,MIC,"ATCC 29213 / MRSA, strain MRSA 110",0.125 µg/mL
same,MIC,"ATCC 29213 / MRSA, strain MRSA 111",0.25 µg/mL
same,MIC,"ATCC 29213 / MRSA, strain MRSA 112",0.25 µg/mL
same,MIC,"ATCC 29213 / MRSA, strain MRSA 113",0.25 µg/mL
same,MIC,"ATCC 29213 / MSSA, strain MSSA 01",0.125 µg/mL
same,MIC,"ATCC 29213 / MSSA, strain MSSA 02",0.125 µg/mL
same,MIC,"ATCC 29213 / NEWMAN, strain Newman",0.25 µg/mL
